Measurements taken from patent US10231958B2, “Methods and compositions for enhancing chemotherapy” (THE BOARD OF REGENTS OF THE UNIVERSITY OF TEXAS SYSTEM, priority 2015, dated 2019).

Experiments:
[1] = system: Intracellular ROS production; assay: Real-time ROS production (DCF assay); type: cell-based; details: dose-independent, even at highly toxic MMS 80 μg/mL
Procedure: Intracellular ROS production was detected using DCFH-DA probe (Sigma) (Zanotto-Filho et al., 2010, Cancer Lett 288, 192-203). This reagent enters the cells and reacts predominantly with highly oxidizing species of ROS, such as hydroxyl radicals, hydroperoxides, and peroxynitrite, thus producing the fluorophore DCF. Briefly, cells were seeded in black-edge clear bottom 96-well plates. After reaching 70% confluence, medium was changed and cells were incubated with 20 μM DCFH-DA dissolved in medium containing 0.5% FBS. After 1 h pre-incubation to allow DCFH-DA uptake, treatments were added to its respective final concentrations and DCF fluorescence was monitored at 0.5, 1, 3, 8, 12, 16 and 24 h in a fluorescence reader (Ex/Em=485/532 nm). Hydrogen peroxide was used as a positive control and N-acetylcysteine (NAC), GSH-ethyl-ester (GSH-E) and Trolox were used as antioxidant standards. As a control, at the end of 24 h, cell viability was assessed and compared to wells in the absence of DCFH-DA.

[2] = system: MEFs; assay: Metabolomics of GSH metabolites in MEFs; type: cell-based, mouse; details: MMS 40 μg/mL
Procedure: The 2.4×10^6 Kc167 or 2×10^6 MEFs were seeded using complete growth medium on Day 0 in a T-175 cell culture flask and were allowed to grow for three days. After treatments with MMS (40 μg/mL), cells were harvested and centrifuged at 8 and 24 hours, and washed using ice-cold PBS. The cell numbers were adjusted to 90×10^6 (Kc167) or 24×10^6 (MEF) and provided as 100 μL of packed cell pellet for metabolic profiling. Metabolomic profiling and data analysis was provided through mView service performed by Metabolon Inc., Durham, N.C. Five biological replicates of each group were used for analysis at each time point. In addition, detailed changes in nucleotide pools were measured in a separate set of experiments. Nucleotide quantification and Metabolomics Pathway Enrichment Analyses were performed through MetaboAnalyst 2.0 (Xia et al., 2012, Nucleic Acids Res 40(Web Server issue), W127-33; Xia et al., 2009, Nucleic Acids Res 37(Web Server issue), W652-60).

[3] = system: human endothelial cells; assay: In vitro angiogenesis (Angiophase kit, CD31); type: cell-based; details: CM from sorafenib treatments
Procedure: (§1) Quantification of MMP1 and MMP3 content in culture medium was assessed using RayBio-MMP3 and RayBio-MMP1 Elisa Kit (RayBiotech, Inc); IL8 was analyzed by Human IL-8 Elisa kit (Pierce Biotechnology). The levels of prostaglandin E2 (PGE2) were determined using the Prostaglandin E2 EIA Kit Monoclonal (Cayman Chemical Company). Culture media were diluted to fit within the standard curves. For conditioned media (CM) preparation for invasion and in vitro angiogenesis experiments, 12-well plated cells were treated with MMS (or MMS plus inhibitors) for 8 h in the presence of 10% FBS, twice washed with HBSS, and incubated with 700 μL drug/serum-free fresh medium for additional 12 h. Thereafter, the conditioned fresh medium was collected and directly used for migration and invasion experiments in order to reduce freezing associated loss of activity.
The Angiophase kit (MBL Inc.) was used to assess the angiogenic potential of conditioned media (CM) from breast cancer cells or the direct effect of pharmaceutical inhibitors (free-drug system) on vessel-like structures formation in vitro. With this kit, human endothelial cells are co-cultured in a specially designed medium to form threadlike tubule structures. These gradually join up to form a network of anastomosing tubules, which resemble the capillary bed found in the CAM assay. Kit-provided cryopreserved co-culture of human endothelial cells were plated and kept for 96 h (proliferative phase) without treatments. Afterwards, the cells were maintained in the presence of conditioned medium from alkylating agent treated cells or control medium for a total of 14 days (angiogenic/vasculogenic phase). Medium was changed each 2 days. At the end of treatments, the cells were fixed and immune-stained for CD31 (PECAM-1), following by incubation with secondary antibody conjugate. ELISA was developed using the soluble substrate p-nitrophenyl-phosphate (p-NPP) whose product was colorimetrically read at 405 nm. After ELISA assays, the wells were washed with dH2O and tubule staining was performed by incubating CD31-stained tubules with the substrate BCIP/NBT, which form insoluble precipitates. Tubules were counted and photographed for qualitative monitoring.

[4] = system: MDA-MB231 cells; assay: Extracellular matrix invasion assay (Boyden chamber); type: cell-based, human; details: CM from sorafenib or sorafenib plus MMS/4-HC vs CM from MMS or 4-HC alone
Procedure: as §1
The invasion potential of breast cancer cells was estimated using the QCM™ 24-Well Cell Invasion Assay Fluorimetric (Millipore). Serum starved cells were trypsinized, trypsin-inhibited, centrifuged, resuspended to 5000 cells/μL, and 50 μL of this suspension (250,000 cells) was seeded on 8 μm pore size inserts coated with extracellular matrix in serum-free conditions. Afterwards, 200 μL conditioned (CM) or fresh medium without serum was added to top chambers. The bottom chamber consisted of 500 μL of DMEM supplemented with 10% FBS as chemoattractant. Cells were allowed to migrate for 24 h at 37° C. under 5% CO2. Invaded cells were detached from the bottom side of the insert, lysed and incubated with CyQuant GR fluorescent Dye for 15 min. Fluorescence was read at Ex/Em=480/520 nm. Percentage of invading cells was compared to cell number standard curves.

| SMILES | increase in ROS [1] | increase in methyl-GSH [2] | angiogenesis with CM from treated cells [3] | invasion with CM from treated cells [4] |
| --- | --- | --- | --- | --- |
| COS(C)(=O)=O [MMS, methyl-methanesulfonate] | 1.5 fold | 100 fold |  |  |
| CNC(=O)c1cc(Oc2ccc(NC(=O)Nc3ccc(Cl)c(C(F)(F)F)c3)cc2)ccn1 [sorafenib, 4-[4-[[4-chloro-3-(trifluoromethyl)phenyl]carbamoylamino]phenoxy]-N-methyl-pyridine-2-carboxamide] |  |  | inhibition of angiogenesis | unable to invade Boyden Chambers |
